Assay results reported in PubChem BioAssay (NCI).
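Cells were grown in 96-well plates and exposed to each compound for 48 hours at five concentrations; endpoints were interpolated linearly between bracketing concentrations, or set to the highest concentration if not reached. TGI: total growth inhibition.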

Key:
Experiment in all cases: NCI anticancer screen, dose series, 48 h
HCT-15 colon = test system: HCT-15 colon
BT-549 breast = test system: BT-549 breast
786-0 renal = test system: 786-0 renal
COLO 205 colon = test system: COLO 205 colon
SK-MEL-2 melanoma = test system: SK-MEL-2 melanoma
HS 578T breast = test system: HS 578T breast
CCRF-CEM leukemia = test system: CCRF-CEM leukemia
OVCAR-8 ovarian = test system: OVCAR-8 ovarian
SK-MEL-5 melanoma = test system: SK-MEL-5 melanoma
RPMI-8226 leukemia = test system: RPMI-8226 leukemia
PC-3 prostate = test system: PC-3 prostate
SR leukemia = test system: SR leukemia
MCF7 breast = test system: MCF7 breast
M19-MEL melanoma = test system: M19-MEL melanoma
XF 498 CNS = test system: XF 498 CNS
HCT-116 colon = test system: HCT-116 colon
KM20L2 colon = test system: KM20L2 colon
K-562 leukemia = test system: K-562 leukemia
SK-MEL-28 melanoma = test system: SK-MEL-28 melanoma
OVCAR-4 ovarian = test system: OVCAR-4 ovarian
IGROV1 ovarian = test system: IGROV1 ovarian
OVCAR-5 ovarian = test system: OVCAR-5 ovarian
SNB-75 CNS = test system: SNB-75 CNS
SK-OV-3 ovarian = test system: SK-OV-3 ovarian
RXF 393 renal = test system: RXF 393 renal
DMS 273 small cell lung = test system: DMS 273 small cell lung
ACHN renal = test system: ACHN renal
UACC-257 melanoma = test system: UACC-257 melanoma
NCI-H226 lung = test system: NCI-H226 lung
MOLT-4 leukemia = test system: MOLT-4 leukemia
NCI-H23 lung = test system: NCI-H23 lung
HT29 colon = test system: HT29 colon
A498 renal = test system: A498 renal
LOX IMVI melanoma = test system: LOX IMVI melanoma
HOP-92 NSCLC = test system: HOP-92 NSCLC
MDA-N = test system: MDA-N
T-47D breast = test system: T-47D breast
NCI-H522 lung = test system: NCI-H522 lung
DMS 114 small cell lung = test system: DMS 114 small cell lung
UO-31 renal = test system: UO-31 renal
OVCAR-3 ovarian = test system: OVCAR-3 ovarian
MDA-MB-231 breast = test system: MDA-MB-231 breast
HCC-2998 colon = test system: HCC-2998 colon
SF-539 CNS = test system: SF-539 CNS
DLD-1 colon = test system: DLD-1 colon
EKVX NSCLC = test system: EKVX NSCLC
NCI/ADR-RES ovarian = test system: NCI/ADR-RES ovarian
RXF-631 renal = test system: RXF-631 renal
SF-295 CNS = test system: SF-295 CNS
SN12C renal = test system: SN12C renal
HL-60(TB) leukemia = test system: HL-60(TB) leukemia
KM12 colon = test system: KM12 colon
UACC-62 melanoma = test system: UACC-62 melanoma
HOP-62 NSCLC = test system: HOP-62 NSCLC
A549 NSCLC = test system: A549 NSCLC
SW-620 colon = test system: SW-620 colon
CAKI-1 renal = test system: CAKI-1 renal
SF-268 CNS = test system: SF-268 CNS
NCI-H460 lung = test system: NCI-H460 lung
SNB-78 CNS = test system: SNB-78 CNS
LXFL 529 NSCLC = test system: LXFL 529 NSCLC
M14 melanoma = test system: M14 melanoma
TK-10 renal = test system: TK-10 renal
MALME-3M melanoma = test system: MALME-3M melanoma
DU-145 prostate = test system: DU-145 prostate
MDA-MB-435 = test system: MDA-MB-435
SNB-19 CNS = test system: SNB-19 CNS
U251 CNS = test system: U251 CNS
HOP-18 NSCLC = test system: HOP-18 NSCLC

Measured: TGI

CC(=O)NNc1nc(C)c(C(=O)NNC(=O)C(=O)Nc2nc3ccc([N+](=O)[O-])cc3s2)s1
> 81.5 µM: SK-MEL-5 melanoma
> 92.6 µM: CAKI-1 renal
> 83.7 µM: IGROV1 ovarian
> 70.6 µM: K-562 leukemia
79.9 µM: HL-60(TB) leukemia
> 70.8 µM: A498 renal
61.4 µM: NCI-H522 lung
56.5 µM: CCRF-CEM leukemia
82.5 µM: DMS 114 small cell lung
> 95.6 µM: RXF 393 renal
68.3 µM: T-47D breast
> 80.5 µM: RPMI-8226 leukemia
75.9 µM: XF 498 CNS
76.4 µM: OVCAR-3 ovarian
> 72.2 µM: SR leukemia
not listed: HOP-18 NSCLC
> 100 µM: all other assays above

CC(=O)OCC1OC(n2cc([N+](=O)[O-])c(=O)[nH]c2=O)C(OC(C)=O)C(OC(C)=O)C1OC(C)=O (centres undefined)
not listed: BT-549 breast | HS 578T breast | PC-3 prostate | MCF7 breast | MDA-N | T-47D breast | MDA-MB-231 breast | SF-539 CNS | NCI/ADR-RES ovarian | RXF-631 renal | SNB-78 CNS | DU-145 prostate | MDA-MB-435
> 100 µM: all other assays above
